Legend:
[1] = molecular target: T1, GPR10 (Homo sapiens, UniProt P49683); conditions: read-out: apparent affinity for GPR10; cited from earlier work
T1 sequence (P49683 1-370): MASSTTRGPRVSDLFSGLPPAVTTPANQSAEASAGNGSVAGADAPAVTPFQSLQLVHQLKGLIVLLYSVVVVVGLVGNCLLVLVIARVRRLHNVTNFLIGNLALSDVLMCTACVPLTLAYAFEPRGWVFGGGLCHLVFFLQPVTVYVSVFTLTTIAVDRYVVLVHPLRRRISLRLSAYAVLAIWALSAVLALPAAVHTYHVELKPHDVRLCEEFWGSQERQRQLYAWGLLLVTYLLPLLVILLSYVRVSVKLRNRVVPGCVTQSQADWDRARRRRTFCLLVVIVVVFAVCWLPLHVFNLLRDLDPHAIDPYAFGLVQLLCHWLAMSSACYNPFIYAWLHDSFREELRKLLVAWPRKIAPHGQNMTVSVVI

[2] = molecular target: T1, GPR10; conditions: cells transfected with GPR10; cited from earlier work
[3] = tested on: rat anterior pituitary cells; conditions: rat anterior pituitary cells in vitro; cited from earlier work
[4] = tested on: AMPA receptor-mediated thalamic oscillatory activity; test: AMPA receptor-driven oscillatory activity, extracellular recording from RTN in thalamic slices; design: species or system Sprague-Dawley rats
Procedure: (§1) Horizontal thalamic slices (400 μm) were prepared from Sprague-Dawley rats (postnatal rats 13-15) using a vibratome (Leica, VTlOOOS). The slices were transferred to a recording chamber after at least 1 hr recovery, and were superfused with artificial cerebrospinal fluid (aCSF) equilibrated with 95% 02/5% CO2 at 0.5 ml/mm. The aCSF contained (in mM): NaCl 126, KCl2.5, NaH2PO4 1.25, CaCl2 2, MgSO4 0.63, NaHCO3 26, and glucose 10. All experiments were carried out in the presence of 10 μM bicuculline maleate and cytochrome c (100 μg/ml) at 34° C. A glass electrode filled with 2 M NaCl was positioned in the nucleus of reticular thalamus (RTN), and extracellular recording was made in response to stimulation of the internal capsule (1-50 μA) every 20-30 sec. After establishing stable oscillatory activity, PrRP was applied for 15-20 min. Paired Student's t-Test was used for statistical analysis. The data were digitized at 1-5 kHz with the Neuronal Activity Acquisition Program (Eclectek Enterprise).
The bar on the left indicates the duration of peptide application. The traces at the bottom show representative responses before and in the presence of PrRP, taken at the time points indicated with arrow heads. […]

[5] = tested on: NMDA receptor-mediated thalamic oscillatory activity; test: NMDA receptor-driven oscillatory activity in thalamic slices (low Mg2+ aCSF with CNQX); design: species or system Sprague-Dawley rats; conditions: 10 μM; low Mg2+ (0.1 mM) aCSF with 10 μM CNQX; n=4
Procedure: as §1
It was next investigated whether the suppression of RTN oscillatory activity by PrRP is the consequence of AMPA receptor modulation or some general cellular effect. […] The above experiment was thus repeated in a low Mg^2+ (0.1 mM)-aCSF containing 10 μM of the AMPA receptor antagonist CNQX.

[6] = tested on: GAERS (Genetic Absence Epilepsy Rats from Strasbourg); test: absence seizure activity (spike and wave discharges, EEG) in GAERS after ICV injection; type: in vivo, rat
Procedure: Electroencephalogram (EEG) recordings and intracerebroventricular (ICV) injection into GAERS were performed essentially as described in Liu et al., Brain Res. 545:1-7 (1991). Briefly, six male GAERS (300-400 g) were implanted stereotaxically (AP=−0.8, ML=1.2, CV=3 mm, with bregma as reference) with a permanent stainless steel cannula under pentobarbital anesthesia (40 mg/kg i.p.). All rats were also implanted bilaterally with 4 stainless-steel electrodes at the frontal and parietal cortex and connected to a microconnector. Both the guide cannulae and EEG electrodes were anchored to the skull using retaining screws and dental acrylic cement.
After one week of recovery, stainless steel injection cannulae were introduced into the guide cannulae so as to extend 2-4 mm beyond their tips. Injection cannulae were connected to a 10 μl microsyringe driven by a pump. Five microliters saline or peptides at various concentrations were microinjected over 1 min through the cannulae while taking EEG recordings continuously throughout the duration of the experiment, in freely moving animals. During EEG recordings the rats were carefully watched and were prevented from falling asleep by gentle sensory stimulation. Seizure frequency was determined as a cumulative duration of spike and wave discharges per consecutive 20 minute periods (seconds of seizure activity per 20 minute recording) after the initial injection. Statistical analysis was performed using the Wilcoxon test.
PrRP was administered intracerebroventricularly into GAERS rats. EEG was taken throughout the course of the experiment and time spent in seizures (spike and wave discharges (SWD) duration) was tabulated for 20 minute intervals from the initial infusion of either aCSF control or various peptide concentrations. Data from six animals receiving the same treatment were pooled. In comparison to aCSF control, PrRP was able to dose-dependently suppress seizure activity in this animal model (FIGS. 5A-5D). […] This seizure suppressing activity remained significant 60 to 80 minutes after peptide injection.
The chart calibration was 200 microV/1 sec.

[7] = tested on: sleeping Sprague-Dawley rats; test: EEG/EMG sleep/wake recording in sleeping rats after i.c.v. infusion; type: in vivo, rat
Procedure: To determine if PrRP modulates sleep/wake or arousal states, varying doses of PrRP were injected i.c.v. into sleeping rats. EEG and EMG were recorded for 150 min in three groups, each consisting of 6 rats, that received either vehicle, 1 nmol PrRP, or 10 nmol PrRP. Analyses were conducted across five consecutive 30-min epochs; vehicle or PrRP were injected at the end of the second epoch. Vehicle-treated rats spent a substantial portion of the entire testing period asleep with characteristic EEG/EMG recordings. EEG and EMG recordings were made from Male Sprague-Dawley rats (300-400 g, Sasco, Oregon, Wis.) according to the method described previously (Berridge et al., J. Neurosci., 16:6999-7009 (1996)).
Rats were housed in pairs for at least 7-days prior to surgery with ad lib access to food and water on an 11:13 hour light:dark cycle (lights on 7:00 a.m.). Approximately 5 μl of vehicle or PrRP31 dissolved in vehicle ([…]) was infused intracerebroventricularly through a pre-implanted cannula (Berridge et al., supra (1996)). Artificial extracellular fluid (147 mM NaCl, 1.3 mM CaCl2, 0.9 mM MgCl2, 2.5 mM KCl, 5.0 mM NaH2PO4; pH 7.4) plus 200 μg/ml cytochrome c served as vehicle. Infusions were made over a 2-min period using a microprocessor-controlled infusion pump (Harvard Apparatus, South Natick, Mass.). Cortical EEG (ECoG) from the frontal cortex and EMG from the dorsal neck muscles were recorded for 60 min prior to infusion and 90 min following infusion. To be scored as a distinct epoch, the appropriate ECoG and EMG activity patterns needed to persist for a minimum of 15 sec. Time spent in each state was scored and totaled for the five 30 min epochs of the observation period, two during the preinfusion period and three during the post-infusion period. The location of the infusion needle was verified morphologically after each experiment. Data were only used for analysis when EEG recordings were electrically adequate and infusion needle placement was accurate. Statistical analysis was performed using a two-way mixed-design ANOVA with drug treatment as the between-subjects variable and time as the within-subjects variable. Post-hoc analyses were conducted using Tukey's HSD test.
FIGS. 7B and 7C show the effects of varying concentrations of PrRP infused into the lateral ventricle on total time spent awake (FIG. 7B) and slow-wave slept (FIG. 7C). Symbols represent mean±SEM of the time (sec) spent in the two different behavioral state categories of six animals per 30-min epoch. PRE1 and PRE2 represent pre-infusion epochs. POST1-POST3 represent post-infusion epochs. Vehicle-treated rats spent a substantial proportion of the testing period asleep.

[8] = molecular target: T2, PrRP receptor (Homo sapiens, UniProt P49683); conditions: mammalian cells recombinantly expressing PrRP receptor; cited from earlier work
T2 construct: expressed in transfected cells
T2 sequence (P49683 1-370): T1 sequence (P49683 1-370)

Substance: IRPVGRF [PrRP(25-31)]
- Kd [1]: 200 nM
- calcium mobilization [2]: mobilizes calcium

Substance: SRAHQHSMEIRTPDINPAWYAGRGIRPVGRF [PrRP-31]
- Kd [1]: ~1 nM
- prolactin-releasing activity [3]: having prolactin-releasing activity

Substance: TPDINPAWYAGRGIRPVGRF [PrRP-20]
- Kd [1]: ~1 nM
- prolactin-releasing activity [3]: having prolactin-releasing activity

Substance: Prolactin Releasing Peptide [PrRP]
- maximum suppression of number of oscillations ([4]; 10 μM, with DL-APV, bicuculline): approximately 40%
- inhibition of number of oscillations ([4]; 20 μM, compared with 10 μM): comparable degree of inhibition
- effect on NMDA receptor-driven oscillation [5]: no discernible effect
- SWD duration, recovery ([6]; 10 nmol ICV, after 40 minutes): returned to baseline
- SWD duration ([6]; 10 nmol ICV, first 20 minutes): reduced by half
- reduction of seizure activity ([6]; 50 nmol ICV): 75%
- reduction of seizure activity ([6]; 100 nmol ICV, at 20 minutes): ~100%
- other mobility or behavioral changes ([6]; all peptide concentrations (10-100 nmol ICV)): No other mobility or behavioral changes were observed
- total time spent awake ([7]; 1 nmol i.c.v., post-infusion epochs): only a trend
- conversion to the awake state ([7]; 10 nmol i.c.v.): nearly complete
- duration of awake state ([7]; 10 nmol i.c.v.): lasted for well over an hour
- slow-wave sleep ([7]; 10 nmol i.c.v.): near-complete suppression
- total time spent awake ([7]; 10 nmol i.c.v., post-infusion epochs (POST1, POST2)): significantly increased
- onset of normal waking EEG/EMG patterns ([7]; injected during sleep phase): within minutes
- calcium mobilization [2]: leads to calcium mobilization
- arachidonic acid metabolite release [8]: leads to activation of arachidonic acid metabolite release

Reference: patent publication US6884596B2, “Screening and therapeutic methods for promoting wakefulness and sleep” (The Regents of the University of California, priority 2000, dated 2005)
